Results on 23 compounds are retold here after patent US8791102B2, “Acetanilide sphingosine-1-phosphate receptor antagonists” (Exelixis, Inc., priority 2008, dated 2014).

pIC50: −log10 of the molar value.

The experiment deals with T1, human S1P1 receptors (Homo sapiens, UniProt P21453).
T1 construct: host or cells: HEK293
The experiment can be described thus: S1P1R antagonist assay (fluorescent membrane potential dye, cAMP readout). It counts as cell-based. The following applies: HEK293 cells expressing human S1P1 receptors and CNG channel; 500 nM NECA; S1P1R agonist 10 nM; 90 minutes; read-out: EC50 or IC50 value.

T1 sequence (P21453 whole entry): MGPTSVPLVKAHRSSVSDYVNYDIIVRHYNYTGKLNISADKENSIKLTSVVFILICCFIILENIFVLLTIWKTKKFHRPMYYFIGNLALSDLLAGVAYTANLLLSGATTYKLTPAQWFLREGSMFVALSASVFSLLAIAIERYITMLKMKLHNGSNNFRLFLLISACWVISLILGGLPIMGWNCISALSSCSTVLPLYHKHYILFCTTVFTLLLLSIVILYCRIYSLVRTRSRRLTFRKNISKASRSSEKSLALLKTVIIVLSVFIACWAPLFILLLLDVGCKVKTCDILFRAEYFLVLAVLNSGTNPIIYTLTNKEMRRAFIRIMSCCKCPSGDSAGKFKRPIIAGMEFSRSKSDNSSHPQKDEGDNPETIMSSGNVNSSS

In the case of `CN1CCCC1CC1CCCCN1CC(=O)N[C@@H](COCc1ccccc1)C(=O)Nc1ccc(Oc2ccc(F)cc2)cc1` (stereo in doubt) [Compound 113, (2S)-3-(benzyloxy)-N-(4-(4-fluorophenoxy)phenyl)-2-(2-(2-(((S)-1-methylpyrrolidin-2-yl)methyl)piperidin-1-yl)acetamido)propanamide], the negative-log IC50 (pIC50) was < 6.00.

As for `O=C(COc1ccccc1O)NC(COCc1ccccc1)C(=O)Nc1ccc(Oc2ccccc2)cc1` (centres unmarked) [Compound 26, 3-(benzyloxy)-2-(2-(2-hydroxyphenoxy)acetamido)-N-(4-phenoxyphenyl)propanamide], the pIC50 was < 6.00. With `O=C(Cc1ccccc1)N[C@@H](COCc1ccccc1)C(=O)Nc1ccc(Oc2ccc(F)cc2)cc1` [Compound 249, (S)-3-(benzyloxy)-N-(4-(4-fluorophenoxy)phenyl)-2-(2-phenylacetamido)propanamide] the figure was 6.00 to 6.52; with `O=C(Cc1cnccn1)N[C@@H](COCc1ccccc1)C(=O)Nc1ccc(Oc2ccc(F)cc2)cc1` [Compound 159, (S)-3-(benzyloxy)-N-(4-(4-fluorophenoxy)phenyl)-2-(2-(pyrazin-2-yl)acetamido)propanamide], ≥ 6.52. With `O=C(Nc1ccc(Oc2ccc(F)cc2)cc1)[C@@H]1C[C@@H](Cc2ccccc2F)CN1C(=O)Cn1nccn1` [Compound 107, (2S,4R)-1-(2-(2H-1,2,3-triazol-2-yl)acetyl)-4-(2-fluorobenzyl)-N-(4-(4-fluorophenoxy)phenyl)pyrrolidine-2-carboxamide] the figure was ≥ 6.52.

Consider `O=C(Nc1ccc(Oc2ccc(F)cc2)cc1)[C@@H]1C[C@@H](Cc2ccccc2)CN1C(=O)CN1C(=O)c2ccccc2C1=O` [Compound 97], for which the pIC50 is ≥ 6.52.

Turning to `O=C(CN1CCC(N2CCOCC2)CC1)N[C@@H](COCc1ccccc1)C(=O)Nc1ccc(Oc2ccc(F)cc2)cc1` [Compound 105, (S)-3-(benzyloxy)-N-(4-(4-fluorophenoxy)phenyl)-2-(2-(4-morpholinopiperidin-1-yl)acetamido)propanamide], the negative-log IC50 (pIC50) was < 6.00. Then `O=C(Nc1ccc(Oc2ccc(F)cc2)cc1)[C@@H]1CN(C(=O)OCc2ccccc2)CCN1C(=O)Cc1c[nH]cn1` [Compound 257, (S)-benzyl 4-(2-(1H-imidazol-4-yl)acetyl)-3-(4-(4-fluorophenoxy)phenylcarbamoyl)piperazine-1-carboxylate], with 6.00 to 6.52; and `COc1ccc2[nH]c(C)c(CC(=O)NC(COCc3ccccc3)C(=O)Nc3ccc(Oc4ccccc4)cc3)c2c1` (centres unmarked) [Compound 352, N-(2-oxo-1-{[(phenylmethyl)oxy]methyl}-2-{[4-(phenyloxy)phenyl]amino}ethyl)-2-(5-methoxy-2-methyl-1H-indol-3-yl)acetamide], with < 6.00; and `O=C(Nc1ccc(Oc2ccc(F)cc2)cc1)[C@@H]1C[C@@H](Cc2ccc(F)cc2Cl)CN1C(=O)Cn1ccnn1` [Compound 2, (2S,4R)-1-(2-(1H-1,2,3-triazol-1-yl)acetyl)-4-(2-chloro-4-fluorobenzyl)-N-(4-(4-fluorophenoxy)phenyl)pyrrolidine-2-carboxamide], with ≥ 6.52. Turning to `Cc1ccc(C(=O)NC(COCc2ccccc2)C(=O)Nc2ccc(Oc3ccccc3)cc2)cc1F` (centres unmarked) [Compound 400, 3-fluoro-4-methyl-N-(2-oxo-1-{[(phenylmethyl)oxy]methyl}-2-{[4-(phenyloxy)phenyl]amino}ethyl)benzamide], the pIC50 was < 6.00. With `O=C(NC(COCc1ccccc1)C(=O)Nc1ccc(Oc2ccccc2)cc1)c1ccc2[nH]cnc2c1` (centres unmarked) [Compound 342, N-(2-oxo-1-{[(phenylmethyl)oxy]methyl}-2-{[4-(phenyloxy)phenyl]amino}ethyl)-1H-benzimidazole-5-carboxamide] the figure was < 6.00; with `Cc1cc(C(=O)NC(COCc2ccccc2)C(=O)Nc2ccc(Oc3ccccc3)cc2)ccc1Cl` (centres unmarked) [Compound 379, 4-chloro-3-methyl-N-(2-oxo-1-{[(phenylmethyl)oxy]methyl}-2-{[4-(phenyloxy)phenyl]amino}ethyl)benzamide], < 6.00; with `O=C(Cn1ccnn1)N[C@@H](COCc1ccccc1)C(=O)Nc1ccc(Oc2ccc(F)cc2)cc1` [Compound 174, (S)-2-(2-(1H-1,2,3-triazol-1-yl)acetamido)-3-(benzyloxy)-N-(4-(4-fluorophenoxy)phenyl)propanamide], ≥ 6.52. Take `O=C(COc1ccc(Cl)c(Cl)c1)NC(COCc1ccccc1)C(=O)Nc1ccc(Oc2ccccc2)cc1` (centres unmarked) [Compound 370, N-(2-oxo-1-{[(phenylmethyl)oxy]methyl}-2-{[4-(phenyloxy)phenyl]amino}ethyl)-2-(3,4-dichlorophenoxy)acetamide]: the pIC50 was 6.00 to 6.52. As to `O=C(Nc1ccc(Oc2ccc(F)cc2)cc1)[C@@H]1C[C@@H](Cc2ccccc2)CN1C(=O)CN1CCc2ccccc2C1` [Compound 82, (2S,4R)-4-benzyl-1-(2-(3,4-dihydroisoquinolin-2(1H)-yl)acetyl)-N-(4-(4-fluorophenoxy)phenyl)pyrrolidine-2-carboxamide], the negative logarithm of the IC50 (pIC50) was ≥ 6.52. In the case of `O=C(NC(COCc1ccccc1)C(=O)Nc1ccc(Oc2ccccc2)cc1)c1cc2ccccc2[nH]1` (centres unmarked) [Compound 386, N-(2-oxo-1-{[(phenylmethyl)oxy]methyl}-2-{[4-(phenyloxy)phenyl]amino}ethyl)-1H-indole-2-carboxamide], the pIC50 is < 6.00. With `O=C(CCC(=O)N1C[C@H](Cc2ccccc2)C[C@H]1C(=O)Nc1ccc(Oc2ccc(F)cc2)cc1)c1ccccc1` [Compound 124, (2S,4R)-4-benzyl-N-(4-(4-fluorophenoxy)phenyl)-1-(4-oxo-4-phenylbutanoyl)pyrrolidine-2-carboxamide] the figure was ≥ 6.52; with `O=C(NC(COCc1ccccc1)C(=O)Nc1ccc(Oc2ccccc2)cc1)C1CCC1` (centres unmarked) [Compound 402, N-(2-oxo-1-{[(phenylmethyl)oxy]methyl}-2-{[4-(phenyloxy)phenyl]amino}ethyl)cyclobutanecarboxamide], < 6.00. Consider `CC(=O)Nc1nc(C)c(S(=O)(=O)NC(COCc2ccccc2)C(=O)Nc2ccc(Oc3ccccc3)cc2)s1` (centres unmarked) [Compound 305, N-(2-oxo-1-{[(phenylmethyl)oxy]methyl}-2-{[4-(phenyloxy)phenyl]amino}ethyl)-2-acetylamino-4-methylthiazol-5-ylsulfonamide], for which the pIC50 is ≥ 6.52. `O=C(CCCCCN1C(=O)C=CC1=O)NC(COCc1ccccc1)C(=O)Nc1ccc(Oc2ccccc2)cc1` (centres unmarked) [Compound 15, N-(3-(benzyloxy)-1-oxo-1-(4-phenoxyphenylamino)propan-2-yl)-6-(2,5-dioxo-2,5-dihydro-1H-pyrrol-1-yl)hexanamide]: the pIC50 was < 6.00. As for `Cc1n[nH]c(C)c1CC(=O)N[C@@H](COCc1ccccc1)C(=O)Nc1ccc(Oc2ccc(F)cc2)cc1` [Compound 152, (S)-3-(benzyloxy)-2-(2-(3,5-dimethyl-1H-pyrazol-4-yl)acetamido)-N-(4-(4-fluorophenoxy)phenyl)propanamide], the pIC50 was ≥ 6.52.

With `CCCCC(CC)C(=O)NC(COCc1ccccc1)C(=O)Nc1ccc(Oc2ccccc2)cc1` (centres unmarked) [Compound 282, N-(3-(benzyloxy)-1-oxo-1-(4-phenoxyphenylamino)propan-2-yl)-2-ethylhexanamide], the negative logarithm of the IC50 (pIC50) is < 6.00.
